Reference: patent US20090048198A1, “COMPOSITIONS AND METHODS FOR NUCLEIC ACID DELIVERY SYSTEMS” (Northwestern University, priority 2007, published 2009)
Several values for one entry are separate records, joined by “and”; a condition that tells them apart may be missing. Equal values may be shown once.

Columns and labels:
[1] = DSC of hydrated cationic lipid dispersions and binary phase diagrams; type: physicochemical; conditions: for melting transition Tm (solid-liquid crystalline): hydrated dispersions, DSC heating 30° C./h
Experimental: (§1) Chloroform solutions of cationic lipids were mixed in glass vials at the desired ratios, solvent was removed with a N2 stream and, subsequently, high vacuum. The lipid mixtures were hydrated in PBS (50 mM phosphate buffer, 100 mM NaCl, pH 7.2) overnight at room temperature and vortex-mixed for several minutes; then they were subjected to several cycles of freezing and thawing. Samples were subsequently equilibrated overnight at room temperature before measurement.
DSC measurements were performed using a VP-DSC Microcalorimeter (MicroCal Inc., Northampton, Mass.) at 30° C./h. Thermograms were analyzed using OriginLab (Northampton, Mass.) software. The onset and the completion temperatures of the phase transitions needed for the construction of the phase diagram were determined by the intersections of the peak slopes with the baseline on the thermograms. The maximums of the heat capacity curves were taken as the phase transition temperatures of the pure components. For asymmetric or split line shapes of the composite aggregates, the transition temperature was defined as that temperature at which the area of the endotherm was divided into equal halves.

[2] = Synchrotron small-angle X-ray diffraction (SAXD) on heating; type: physicochemical; conditions: SAXD heating scans 20-90° C.
Experimental: as §1
Measurements were performed at Argonne National Laboratory, Advanced Photon Source, DND-CAT (beamline 5-IDD) and BioCAT (beamline 18-ID), using 12 keV X-rays, as previously described [1 R. Koynova, R. C. MacDonald, Mixtures of Cationic Lipid O-Ethylphosphatidylcholine With Membrane Lipids and DNA: Phase Diagrams, Biophys. J. 85 (2003) 2449-2465]. The lipid concentration of the dispersions was 20 wt %. Samples were filled into glass capillaries (Charles Supper Co., Natick, Mass.) and flame-sealed. A Linkam thermal stage (Linkam Sci Instruments, Surrey, England) provided temperature control. Linear heating and cooling scans were performed at rates of 1-5° C./min. Exposure times were typically 0.5 sec. Data were collected using a MAR-CCD detector. Sample-to-detector distance was 1.8-2 m. […] Products of lipid degradation were not detected in these samples, and radiation damage of the lipids was not evident from their X-ray patterns.

[3] = test system: Human umbilical artery endothelial cells (HUAECs); test: Transfection of HUAECs with lipoplexes, β-galactosidase reporter assay; type: cell-based; conditions: HUAEC cells in vitro; CMV-β-galactosidase plasmid; β-galactosidase activity 24 h after transfection
Experimental: Human umbilical artery endothelial cells (HUAECs) were obtained from Cambrex (Walkersville, Md.) were and maintained in EGM-2 MV containing 5% fetal bovine serum (FBS) (Cambrex) at 37° C. with 5% CO2. At confluence, the cells were passaged using 0.25 mg/ml Trypsin/EDTA (Cambrex) and were used at passages 5-10 for these experiments. It is noted that human endothelial cells, and particularly HUAECs, are known in the art to be difficult to transfect (see, Teifel, et al., Endothelium, New York, 5, 21-35 (1997); Krotz et al., J. Vasc. Res., 40:425-434 (2003); and Tanner et al., Cardiovascular Research, 35:522-528 (1997)) all of which are herein incorporated by reference. For example, it has been reported that the level of transfection for a reporter gene in human umbilical vein endothelial cells is less than 1% of that of HeLa cells (Edgell et al., BioTechniques, 25:264-272 (1998), herein incorporated by reference).
The cells were seeded in 96-well plates at 24 h before transfection at densities appropriate to give about 80% confluence at the time of transfection. CMV-β-galactosidase plasmid was purchased from Clontech Laboratories Inc. (Palo Alto, Calif.) and propagated and purified by Bayou Biolabs (Harahan, La.). […]

CCCCCCCCCCCCCC[N+](C)(C)CCCCCCCCCCCCCC.[Br-] [diC14DAB, Ditetradecyldimethylammonium-bromide]
melting transition Tm (solid-liquid crystalline) [1]: 26 °C | temperature of solid-liquid crystalline (lamellar) transition on heating [2]: 25 °C and ~26 °C

CCCCCCCCCCCCCCCC(=O)OC[C@H](COP(=O)(OCC)OCC[N+](C)(C)C)OC(=O)CCCCCCCCCCCCCCC (some centres unmarked) [EDPPC]
phase at physiological temperature (37° C.) according to phase diagram [1]: solid phase | melting transition Tm (solid-liquid crystalline) [1]: 42 °C | transfection activity [3]: still transfects DNA into cells

CCCCCCCCCCCCCC(=O)OC[C@H](COP(=O)(OCC)OCC[N+](C)(C)C)OC(=O)CCCCCCCCCCCCC (some centres unmarked) [EDMPC]
phase at physiological temperature (37° C.) according to phase diagram [1]: liquid crystalline phase | melting transition Tm (solid-liquid crystalline) [1]: 24 °C | transfection activity [3]: better transfection agents than EDPPC

CCCCCCCCCCCCCCCCCC[N+](C)(C)CCCCCCCCCCCCCCCCCC.[Br-] [diC18DAB, dioctadecyldimethylammonium-bromide]
phase at physiological temperature (37° C.) according to phase diagram [1]: solid phase | melting transition Tm (solid-liquid crystalline) [1]: ~50 °C | temperature of solid-liquid crystalline (lamellar) transition on heating [2]: 47 °C
